Measurements: the NIST ThermoML archive (doi:10.1016/j.jct.2015.08.008)
± gives the expanded uncertainty stated by the source.

Assay: molar enthalpy of vaporization or sublimation
Settings: 298.15 K; Crystal; Static calorimetry

| Compound | molar enthalpy [kcal/mol] |
| --- | --- |
| CC(=O)c1cccc(C#N)c1 [3-acetylbenzonitrile] | 22.6 ± 0.359 |
| N#CCC(=O)c1ccccc1 [3-oxo-3-phenylpropanenitrile] | 23.5 ± 0.502 |
